The structures appear in SMILES notation.

The term Kd denotes the constant that tells how readily two partners part at equilibrium. Lower therefore signals a tighter complex.

The target of test [1] is T1, GlmR (Bacillus subtilis, UniProt O06974).
T1 construct: gene mgfK; purified recombinant B. subtilis GlmR, FITC-labeled (pET28a, from E. coli)
The test is described as follows: fluorescence titration of FITC-labeled GlmR, single-site fit. The format is binding.

For test [2], the target named is T2, GlmR (Bacillus subtilis, UniProt O06974, T304A).
T2 construct: gene mgfK; purified recombinant B. subtilis GlmR T304A, FITC-labeled (pET28a, from E. coli)
The test is described as follows: fluorescence titration of FITC-labeled GlmR T304A, single-site fit. The format is binding.

T2 sequence (O06974 whole entry T304A): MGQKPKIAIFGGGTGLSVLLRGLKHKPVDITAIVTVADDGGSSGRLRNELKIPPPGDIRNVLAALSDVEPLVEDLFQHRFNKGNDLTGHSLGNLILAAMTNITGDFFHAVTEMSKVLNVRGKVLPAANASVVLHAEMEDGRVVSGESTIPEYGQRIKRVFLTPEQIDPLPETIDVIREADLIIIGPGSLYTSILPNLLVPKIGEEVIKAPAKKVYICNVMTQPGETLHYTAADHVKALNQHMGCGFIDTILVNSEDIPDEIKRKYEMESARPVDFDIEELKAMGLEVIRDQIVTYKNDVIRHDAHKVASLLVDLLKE
T1 sequence (O06974 whole entry): as the sequence (O06974 whole entry T304A) above, with A304T counted along it

As to `CC(=O)N[C@H]1[C@@H](OP(=O)(O)OP(=O)(O)OC[C@H]2O[C@@H](n3ccc(=O)[nH]c3=O)[C@H](O)[C@@H]2O)O[C@H](CO)[C@@H](O)[C@@H]1O` [UDP-GlcNAc], the values for the dissociation constant Kd in test [1] and in test [2] were 280 ± 40 µM and 1670 ± 310 µM, respectively.

Values taken from PMC13046274, “Post-translational modifications of GlmR integrate metabolic and stress signals to maintain cell envelope homeostasis in Bacillus subtilis” (PLOS Genetics, 2026).
